This assay concerns the target Breast cancer type 2 susceptibility protein/DNA repair protein RAD51 homolog 1 (Homo sapiens, UniProt P51587+Q06609). Kind of assay: ELISA assay. From the text:
This assay is an efficient tool for directly measuring inhibition of the BRC4−Rad51 interaction, at a molecular level, which is described by Rajendra et al.

Structures are written as SMILES.

Chain of Breast cancer type 2 susceptibility protein/DNA repair protein RAD51 homolog 1 (P51587 whole entry V2466A): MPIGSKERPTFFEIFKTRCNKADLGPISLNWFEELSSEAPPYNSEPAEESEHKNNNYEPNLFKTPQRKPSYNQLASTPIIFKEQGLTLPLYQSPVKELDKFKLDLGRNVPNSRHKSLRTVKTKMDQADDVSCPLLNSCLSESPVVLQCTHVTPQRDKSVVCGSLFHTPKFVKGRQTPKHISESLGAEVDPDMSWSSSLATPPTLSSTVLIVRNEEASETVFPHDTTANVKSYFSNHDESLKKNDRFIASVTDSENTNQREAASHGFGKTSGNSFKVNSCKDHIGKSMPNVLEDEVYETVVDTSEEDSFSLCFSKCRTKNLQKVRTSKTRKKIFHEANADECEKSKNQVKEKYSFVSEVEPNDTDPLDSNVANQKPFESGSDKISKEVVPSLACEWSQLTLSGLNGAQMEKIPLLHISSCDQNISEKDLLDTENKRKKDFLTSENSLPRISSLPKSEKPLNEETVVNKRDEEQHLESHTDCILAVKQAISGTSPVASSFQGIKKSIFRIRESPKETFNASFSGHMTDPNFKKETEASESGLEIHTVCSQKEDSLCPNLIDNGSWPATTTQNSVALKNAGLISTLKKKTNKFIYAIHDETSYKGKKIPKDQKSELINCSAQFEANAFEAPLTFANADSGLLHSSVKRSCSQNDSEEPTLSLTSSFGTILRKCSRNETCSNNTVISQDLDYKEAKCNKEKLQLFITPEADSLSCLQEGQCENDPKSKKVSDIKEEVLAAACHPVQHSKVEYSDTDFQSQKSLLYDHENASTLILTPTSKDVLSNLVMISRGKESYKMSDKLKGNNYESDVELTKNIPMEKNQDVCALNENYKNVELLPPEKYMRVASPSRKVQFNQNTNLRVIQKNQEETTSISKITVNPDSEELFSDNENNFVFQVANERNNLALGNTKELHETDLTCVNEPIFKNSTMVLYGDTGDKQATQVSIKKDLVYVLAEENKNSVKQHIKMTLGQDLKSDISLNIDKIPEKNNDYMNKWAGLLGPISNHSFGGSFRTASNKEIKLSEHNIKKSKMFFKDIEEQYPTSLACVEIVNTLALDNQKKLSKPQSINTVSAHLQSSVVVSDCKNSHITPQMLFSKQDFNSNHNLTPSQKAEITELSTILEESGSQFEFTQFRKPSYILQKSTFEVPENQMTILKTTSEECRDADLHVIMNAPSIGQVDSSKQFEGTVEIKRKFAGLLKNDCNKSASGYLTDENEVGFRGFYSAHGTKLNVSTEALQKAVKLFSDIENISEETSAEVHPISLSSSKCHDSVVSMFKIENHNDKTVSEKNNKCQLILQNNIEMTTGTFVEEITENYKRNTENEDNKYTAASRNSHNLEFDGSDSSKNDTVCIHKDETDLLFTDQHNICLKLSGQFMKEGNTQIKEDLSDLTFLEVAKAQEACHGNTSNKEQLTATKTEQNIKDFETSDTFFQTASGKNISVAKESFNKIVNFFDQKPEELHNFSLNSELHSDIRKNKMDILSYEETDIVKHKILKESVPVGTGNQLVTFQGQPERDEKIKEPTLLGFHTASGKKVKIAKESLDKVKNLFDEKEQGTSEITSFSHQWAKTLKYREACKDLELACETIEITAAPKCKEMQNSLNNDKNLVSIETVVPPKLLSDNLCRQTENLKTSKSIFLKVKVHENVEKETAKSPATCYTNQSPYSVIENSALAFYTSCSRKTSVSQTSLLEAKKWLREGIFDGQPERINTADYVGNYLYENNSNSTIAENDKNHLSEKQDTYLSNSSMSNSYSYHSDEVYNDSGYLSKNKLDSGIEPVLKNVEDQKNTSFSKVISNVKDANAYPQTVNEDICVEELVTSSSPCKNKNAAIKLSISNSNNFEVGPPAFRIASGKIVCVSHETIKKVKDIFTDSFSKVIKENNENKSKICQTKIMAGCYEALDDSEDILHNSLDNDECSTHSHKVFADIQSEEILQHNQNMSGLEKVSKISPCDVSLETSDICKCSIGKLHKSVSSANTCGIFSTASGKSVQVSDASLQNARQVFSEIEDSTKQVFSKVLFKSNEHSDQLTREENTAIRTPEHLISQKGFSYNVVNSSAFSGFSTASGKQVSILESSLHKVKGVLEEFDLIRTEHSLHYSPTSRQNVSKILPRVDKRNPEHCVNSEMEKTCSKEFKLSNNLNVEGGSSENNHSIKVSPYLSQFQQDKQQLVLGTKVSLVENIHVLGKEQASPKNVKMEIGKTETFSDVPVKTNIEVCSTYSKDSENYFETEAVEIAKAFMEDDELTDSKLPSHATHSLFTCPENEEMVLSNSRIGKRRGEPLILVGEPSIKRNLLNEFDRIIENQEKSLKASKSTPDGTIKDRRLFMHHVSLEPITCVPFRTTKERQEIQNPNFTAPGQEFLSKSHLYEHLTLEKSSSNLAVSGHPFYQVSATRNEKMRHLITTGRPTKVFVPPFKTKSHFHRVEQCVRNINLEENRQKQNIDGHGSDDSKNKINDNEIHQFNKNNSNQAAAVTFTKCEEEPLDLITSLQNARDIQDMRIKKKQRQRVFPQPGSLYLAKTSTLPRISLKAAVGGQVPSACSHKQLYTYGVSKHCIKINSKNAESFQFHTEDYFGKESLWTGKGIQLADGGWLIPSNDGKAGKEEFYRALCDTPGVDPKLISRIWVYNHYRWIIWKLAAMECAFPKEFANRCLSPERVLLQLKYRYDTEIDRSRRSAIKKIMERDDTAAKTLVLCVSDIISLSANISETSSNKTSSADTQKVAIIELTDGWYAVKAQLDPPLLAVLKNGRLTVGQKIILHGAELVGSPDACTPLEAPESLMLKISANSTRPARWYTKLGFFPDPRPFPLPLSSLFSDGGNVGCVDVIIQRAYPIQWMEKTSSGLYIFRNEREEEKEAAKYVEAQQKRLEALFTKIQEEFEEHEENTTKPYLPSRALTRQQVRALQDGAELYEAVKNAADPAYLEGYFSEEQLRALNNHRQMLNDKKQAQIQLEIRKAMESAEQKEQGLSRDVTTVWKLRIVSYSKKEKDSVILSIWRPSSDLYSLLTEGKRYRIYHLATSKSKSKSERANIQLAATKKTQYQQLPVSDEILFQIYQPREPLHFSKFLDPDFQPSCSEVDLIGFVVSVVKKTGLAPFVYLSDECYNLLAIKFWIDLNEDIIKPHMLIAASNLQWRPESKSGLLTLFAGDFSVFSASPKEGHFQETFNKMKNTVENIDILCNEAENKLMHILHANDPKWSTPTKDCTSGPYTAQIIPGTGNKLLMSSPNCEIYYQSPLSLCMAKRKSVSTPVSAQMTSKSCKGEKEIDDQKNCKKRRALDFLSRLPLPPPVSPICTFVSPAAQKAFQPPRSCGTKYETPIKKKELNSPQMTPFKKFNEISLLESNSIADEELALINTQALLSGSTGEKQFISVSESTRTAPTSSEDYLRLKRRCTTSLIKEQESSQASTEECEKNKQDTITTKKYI
Chain of Breast cancer type 2 susceptibility protein/DNA repair protein RAD51 homolog 1 (Q06609 whole entry): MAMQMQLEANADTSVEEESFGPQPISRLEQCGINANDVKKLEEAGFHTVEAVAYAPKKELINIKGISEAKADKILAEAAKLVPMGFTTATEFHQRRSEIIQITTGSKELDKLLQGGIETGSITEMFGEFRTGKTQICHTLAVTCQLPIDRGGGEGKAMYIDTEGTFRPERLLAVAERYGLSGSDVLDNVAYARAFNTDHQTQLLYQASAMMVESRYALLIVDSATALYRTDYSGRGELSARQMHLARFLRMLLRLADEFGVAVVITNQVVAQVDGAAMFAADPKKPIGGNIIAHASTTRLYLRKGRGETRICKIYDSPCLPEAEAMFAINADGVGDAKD

The compound `O=C(CSc1nnc(Cn2c(=O)sc3ccccc32)n1CCCc1ccccc1)NC1CCCC1` [N-cyclopentyl-2-((5-((2-oxobenzo[d]thiazol-3(2H)-yl)methyl)-4-phenpropyl-4H-1,2,4-triazol-3-yl)thio)acetamide] had an EC50 of 25 µM. To `O=C(CSc1nnc(Cn2c(=O)sc3ccccc32)n1CCc1ccccc1)NC1CCCC1` [F0665-0303] belongs 53 µM.

(Values after BindingDB's records for doi:10.1021/acschembio.7b00707 (Istituto Italiano di Tecnologia, 2017).)
